The values below are quoted from earlier work in patent US7977452B2, “Janus dendrimers and dendrons” (Dendritic Nanotechnologies, Inc., priority 2005, dated 2011).

The conditions of data set [1]: Gd-chelate PAMAM dendrimer contrast agent.
Data set [2] relates to Mouse.
Data set [3] concerns Mouse. This is another data set of the same source.
The conditions of data set [4]: in vivo.

`O=C(O)CN(CCN(CC(=O)O)CC(=O)O)CCN(CC(=O)O)CC(=O)O` (Gd complex, metal not drawn) [DTPA, diethylenetriaminepentaacetic acid]: in data set [1], the Size is listed as >1 nm.

As for `CNC[C@H](O)[C@@H](O)[C@H](O)[C@H](O)CO.CNC[C@H](O)[C@@H](O)[C@H](O)[C@H](O)CO.O=C([O-])CN(CCN(CC(=O)[O-])CC(=O)O)CCN(CC(=O)[O-])CC(=O)O.[Gd+3]` [(NMG)2-Gd-DTPA], in data set [2], the LD50 is 8.2 mmol·kg. In data set [3], the “Effective dose (ED)” value was 0.1 mmol·kg.

Regarding `O=C(O)CN(CCN(CC(=O)O)CC(=O)O)CCN(CC(=O)O)CC(=O)O` [DTPA, diethylenetriaminepentaacetic acid], the Excretion result in data set [4] is on record as “Kidney”.

Consider `O=C([O-])CN1CCNCCN(CC(=O)[O-])CCN(CC(=O)[O-])CC1.[Gd+3]` [Gd(III)-DO3A], for which, in data set [2], the LD50 was 7 mmol·kg. Besides, the “Effective dose (ED)” value in data set [3] was 0.1 mmol·kg.

Regarding `CNC(=O)CN(CCN(CCN(CC(=O)[O-])CC(=O)NC)CC(=O)[O-])CC(=O)[O-].[Gd+3]` [Gd-DTPA-BMA], the LD50 in data set [2] was 34.4 mmol·kg. Also, the “Effective dose (ED)” value in data set [3] was 0.1 mmol·kg.

On to `CC(O)CN1CCN(CC(=O)[O-])CCN(CC(=O)[O-])CCN(CC(=O)[O-])CC1.[Gd+3]` (stereo not drawn) [Gd-HP-DO3A], for which the LD50 in data set [2] was 12.0 mmol·kg. In data set [3], the “Effective dose (ED)” value was 0.1 mmol·kg.

On to `CNC[C@H](O)[C@@H](O)[C@H](O)[C@H](O)CO.O=C([O-])CN1CCN(CC(=O)[O-])CCN(CC(=O)O)CCN(CC(=O)[O-])CC1.[Gd+3]` [NMG-Gd-DOTA], for which the LD50 in data set [2] is 11.2 mmol·kg. Besides, the “Effective dose (ED)” value in data set [3] was 0.1 mmol·kg.
